Experimental data reported in patent US20230151432A1, “KIF18A INHIBITORS FOR TREATMENT OF NEOPLASTIC DISEASES” (AMGEN INC., priority 2020, published 2023).

Experiments:
[1] = test system: normal human foreskin fibroblast cells; assay: Arrayscan VTi multiplex imaging assays; type: cell-based; settings: 48 hours, top 10 μM (C11) or 1 μM (C9); for total object count and BrdU incorporation: 9-point range
Protocol: Imaging assays were also carried out to determine the effects of KIF18A inhibitor treatment on normal somatic cells. Arrayscan VTi multiplex imaging assays were carried out with human FSF cells as described below. Briefly, normal human foreskin fibroblast cells were seeded at 6000 cells per well in 96-well imaging plates (Corning) and cultured overnight. The next day, two replicate 96-well plates were treated with DMSO or panel of test agents over a 9-point concentration range using 3-fold dilution with top concentration of 10 μM (KIF18A inhibitor Compound C11, nutlin-3a), 1 μM (KIF18A inhibitor Compound C9, BI-2536, ispinesib, paclitaxel), or 5 μM (palbociclib, GSK923295). After 48 hours of treatment, one plate was pulsed with BrdU (Invitrogen) for 3 hours before fixation. Both 96-well plates fixed with 4% formaldehyde (Thermo Scientific), washed twice with wash buffer [PBS, 1% BSA (Thermo Fisher), 0.2% Triton X-100 (Sigma)]. The first 96-well plate was processed for BrdU epitope detection using acid wash, blocked overnight at 4° C. in wash buffer supplemented with horse serum (4 drops serum per 10 mL) (Vector Labs) and stained with anti-BrdU-AlexaFluor-647 (B35140, Invitrogen, mouse, 3 μg per mL) and anti-p21 (12D1) (2947, Cell Signaling, rabbit, 1:400) antibodies for two hours at room temperature. Cells were washed twice in wash buffer and stained with secondary antibody [anti-rabbit-IgG-AlexaFluor-488 (A1 1034, Invitrogen, 1:2000)] and incubated for one hour at room temperature. The second 96-well plate was blocked overnight at 4° C. in wash buffer supplemented with horse serum (4 drops serum per 10 mL) (Vector Labs) and stained with anti-cl-PARP (214/215) (44-6986, Invitrogen, rabbit, 1:1500) and anti-γH2AX (05-636, Millipore, mouse, 1:1000) antibodies for two hours at room temperature. Cells were washed twice in wash buffer and stained with secondary antibodies [anti-rabbit-IgG-AlexaFluor-647 (A21245, Invitrogen, 1:2000), anti-mouse-IgG-AlexaFluor-488 (A1 1029, Invitrogen, 1:2000)] and incubated for one hour at room temperature. Both 96-well plates were washed twice and counterstained with Hoeschst 33342 (Invitrogen) nuclear dye. Imaging data was collected by widefield imaging on ArrayScan VTi HCS Reader (Thermo Scientific) from 64 fields per well using 20×objective. Valid nuclear object counts were determined for each well as well as the percentage of BrdU, p21, cl-PARP, and γH2AX positive objects for each test agent concentration and DMSO control. Concentration-response heatmaps were generated using GraphPad Prism software (V7.0.4).

[2] = test system: panel of cell lines (HCC-1806, HCC-1937, BT-549, MDA-MB-157, MCF-7, CAL-51, MDA-MB-453, ZR-75-1, OVCAR-3, OVCAR-5); assay: 96 h cell growth assay (Example 19); type: cell-based; settings: Homo sapiens, KIF18A inhibitor-sensitive cells (e.g., OVCAR-3 and BT-549), read-out: Mean Count EC50
Protocol: KIF18A inhibitor cancer cell line sensitivity profiles were determined for KIF18A inhibitor Compounds C9 and C11. Cells of various cancer cell lines were treated with DMSO or increasing concentrations of C9 or C11 for 96 h. The concentration-response profiles of some cancer cell lines (including, e.g., BT-549, OVCAR-3) for C11 were similar. […] Cancer cell lines CAL-51, MDA-MG-453 and OVCAR-5 were insensitive to C9 and C11.
Cell growth assay. A panel of cell lines (HCC-1806, HCC-1937, BT-549, MDA-MB-157, MCF-7, CAL-51, MDA-MB-453, ZR-75-1, OVCAR-3, OVCAR-5) were seeded in 96-well plate at densities optimized for 96 h cell growth assay. The next day, cells were treated with DMSO or one of the following compounds: KIF18A Inhibitor Compounds C9 and C11, or palbociclib, with top concentration of 6 μM (19-point concentration range) using staggered dose method. After 96 h, cells were fixed, stained, imaged, and analyzed as described above. Valid nuclear object counts were determined for each well and Count POC value was computed using the following formula [Count POC=(valid nuclear object count in treated well)+(valid nuclear object count in DMSO treated wells)×100]. Concentration-response curve-fitting was performed by 4-parameter non-linear regression equation using GraphPad Prism 7.05. Mean Count EC50 value was computed for each cell line from two independent experiments run in duplicate. […]

SMILES | total object count and BrdU incorporation [1] | cell cycle arrest measured by the induction of p21 protein expression [1] | induction of DNA damage measured by increase in γHH2X expression [1] | induction of apoptosis measured by cl-PARP expression [1] | EC50 [2] [nM]
CC(C)(CO)Nc1ccc(C(=O)Nc2cccc(S(=O)(=O)C3CCCC3)c2)c(N2CCC3(CC2)CC3)n1 [Compound C11, N-(3-(cyclopentylsulfonyl)phenyl)-6-((1-hydroxy-2-methylpropan-2-yl)amino)-2-(6-azaspiro[2.5]octan-6-yl)nicotinamide] | behaved as vehicle control treated cells | no cell cycle arrest | no | no induction of apoptosis | 47
CC(C)(C)NS(=O)(=O)c1cccc(NC(=O)c2ccc(S(=O)(=O)NC(C)(C)C)cc2N2CCC3(CC2)CC3)c1 [Compound C9, 4-(N-(tert-butyl)sulfamoyl)-N-(3-(N-(tert-butyl)sulfamoyl)phenyl)-2-(6-azaspiro[2.5]octan-6-yl)benzamide] | behaved as vehicle control treated cells | no cell cycle arrest | no | no induction of apoptosis | 21
